Results from publication PMC9144445, “Substrate-Based Design of Cytosolic Nucleotidase IIIB Inhibitors and Structural Insights into Inhibition Mechanism” (Pharmaceuticals, 2022).

Legend:
human cN-IIIA = human cN-IIIA (Homo sapiens, UniProt Q9H0P0); assay: IC50 determination for cN-IIIA (MGP assay); format: biochemical; conditions: for IC50: m7GMP 100 µM, cN-IIIA 40 nM, 25 min, MGP assay
Description: To determine the inhibitory potency towards cN-IIIA, compounds were evaluated using the MGP assay in an analogous way as described above for cN-IIIB.
All experiments were performed in triplicate.

mouse eIF4E = mouse eIF4E (Mus musculus, UniProt P63073); assay: eIF4E competition binding assay with pyrene-labelled fluorescent probe; conditions: for EC50: mouse eIF4E 400 nM, pyrene-labelled probe 75 nM
[1] = tested on: endogenous cN-IIIB, m^7GMP dephosphorylation in cytoplasmic HEK 293T cell extracts; assay: m7GMP decay in HEK 293T cell extract in presence of inhibitors (LC–MS/MS); format: biochemical, human; conditions: compound 100 µM, [2H]-m7GMP 4 µM, 37 °C, up to 60 min
Description: The expression of cN-IIIB was verified by Western blot and was the most abundant in HEK 293T among four tested cell lines (Figure 9A). The cN-IIIA isoform was likewise abundantly expressed in the HEK cell line. The stability and activity of the inhibitors were tested in HEK 293T cell extracts using mass spectrometry analysis. The evaluated set of compounds contained some of the identified cN-IIIB inhibitors: 4, 5, 5a, and 5d of varying inhibitory potencies as well as compound S16 with no inhibitory potency (negative control). Initially, we verified the stability of the compounds in the extracts. The LC–MS/MS analyses confirmed that all analyzed compounds were stable in the lysate for at least 60 min (Figure 9B). Then, we monitored the time-dependent degradation of heavy m^7GMP, deuterated within the methyl group ([^2H]-m^7GMP]) in the extracts, in the presence or absence of the evaluated compounds (100 µM each, Figure 9C).
A typical reaction contained 1 µL–40 µM (final concentrations 4 µM) of [^2H]m^7GMP and 9 µL cell extracts. […]
Chromatographic separation of nucleotides and their metabolites was achieved on a ZORBAX Eclipse Plus C18 analytical column (3.5 μm, 4.6 mm × 100 mm, Agilent) equipped with Eclipse Plus-C18 analytical guard column (5.0 μm, 4.6 × 12.5 mm). […] Then, the analytes in the HPLC eluate were monitored by MS in multiple reaction monitoring (MRM) mode. […]

mouse eIF4E, sequence (P63073 whole entry): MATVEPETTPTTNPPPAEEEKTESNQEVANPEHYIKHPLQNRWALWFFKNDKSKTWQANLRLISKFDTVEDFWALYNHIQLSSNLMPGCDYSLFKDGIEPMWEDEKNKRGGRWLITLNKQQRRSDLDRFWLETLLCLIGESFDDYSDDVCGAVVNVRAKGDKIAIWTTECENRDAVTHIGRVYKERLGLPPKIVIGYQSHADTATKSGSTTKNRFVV

SMILES: Nc1nc2c(c(=O)[nH]1)[n+](Cc1ccc(F)c(F)c1)cn2C1OC(COP(=O)([O-])O)C(O)C1O (centres unmarked) [Compound 5d]
- IC50 (human cN-IIIA): 106 ± 26.6 µM
- EC50 (mouse eIF4E): 39.9 ± 8.5 µM

SMILES: Cc1cccc(C[n+]2cn([C@@H]3O[C@H](COP(=O)([O-])O)[C@@H](O)[C@H]3O)c3nc(N)[nH]c(=O)c32)c1 [Compound 5a]
- IC50 (human cN-IIIA): 127 ± 35.6 µM
- EC50 (mouse eIF4E): 22.6 ± 4.3 µM

SMILES: Nc1nc2c(c(=O)[nH]1)[n+](Cc1ccccc1)cn2[C@@H]1O[C@H](COP(=O)([O-])O)[C@@H](O)[C@H]1O [Compound 5]
- IC50 (human cN-IIIA): 113 ± 38.5 µM

SMILES: C[n+]1cn([C@@H]2O[C@H](Cn3cc(CCP(=O)([O-])O)nn3)[C@@H](O)[C@H]2O)c2nc(N)[nH]c(=O)c21 [Compound S16]
- Inhibition of m7GMP decay in HEK 293T cell extract (in words) [1]: almost complete decay of m^7GMP was observed within the first 50 min

SMILES: Nc1nc2c(c(=O)[nH]1)[n+](Cc1ccc(C(F)(F)F)cc1)cn2[C@@H]1O[C@H](COP(=O)([O-])O)[C@@H](O)[C@H]1O [Compound 5g, 7-(4-Trifluoromethylbenzyl)guanosine 5’-Monophosphate]
- IC50 (human cN-IIIA): 42.5 ± 8.3 µM
- SI (cN-IIIB/cN-IIIA) (human cN-IIIA; ratio of IC50 for cN-IIIB and IC50 for cN-IIIA): 0.17
- Affinity to eIF4E compared to m7GMP (mouse eIF4E; comparison of EC50 values): at least two-fold lower affinity
- EC50 (mouse eIF4E): 118 ± 66.4 µM
- SI (cN-IIIB/eIF4E) (mouse eIF4E; ratio of IC50 for cN-IIIB and EC50 for eIF4E): 0.06
